Where a name gives a salt, the structure may show the parent alone.

Experimental findings from patent US10968203B2, “Pyrimidinyl-pyridyloxy-naphthyl compounds and methods of treating IRE1-related diseases and disorders” (Genentech, Inc., priority 2017, dated 2021) are described below.

In the first test the test system is XBP1s-luc 293 LUC. The test is described as follows: cellular PD assay, XBP1s-LUC reporter (Example 903). The note with it: Table 1; read-out: XBP1s-luc 293 LUC (IC50). It is filed as cell-based. In short, it runs like this:
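Cellular IRE1α pathway activity was quantified from the luciferase signal of an XBP1-Luc reporter, where the luciferase fusion is in frame and expressed only from the spliced XBP1 transcript.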
Regarding `CCOC(=O)Nc1cccc2c(Oc3ncccc3-c3ccnc(N[C@H]4CCCNC4)n3)c(C)ccc12` [Example 153, (S)-Ethyl (6-methyl-5-((3-(2-(piperidin-3-ylamino)pyrimidin-4-yl)pyridin-2-yl)oxy)naphthalen-1-yl)carbamate], the IC50 was 143 nM. Take `Cc1ccc2c(NC(=O)CC(C)(C)C)c(F)ccc2c1Oc1ncccc1-c1ccnc(N[C@@H]2CNC[C@H](C)C2)n1` [Example 374, N-(2-Fluoro-6-methyl-5-((3-(2-(((3S,5R)-5-methylpiperidin-3-yl)amino)pyrimidin-4-yl)pyridin-2-yl)oxy)naphthalen-1-yl)-3,3-dimethylbutanamide]: the half-maximal inhibitory concentration (IC50) is 39.4 nM. Turning to `Cc1ccc2c(NS(=O)(=O)CCC(C)C)c(F)ccc2c1Oc1ncccc1-c1ccnc(N[C@H]2CCCNC2)n1` [Example 243, (S)—N-(2-Fluoro-6-methyl-5-((3-(2-(piperidin-3-ylamino)pyrimidin-4-yl)pyridin-2-yl)oxy)naphthalen-1-yl)-3-methylbutane-1-sulfonamide], the IC50 came to 68 nM. Consider `CCCS(=O)(=O)Nc1cccc2c(Oc3ncccc3-c3ccnc(N[C@H]4CCCNC4)n3)c(Cl)ccc12` [Example 181], for which the IC50 was found to be 185 nM. On the same count and under the same terms, the value for `CCCS(=O)(=O)Nc1cccc2c(Oc3ncc(Cl)cc3-c3ccnc(N[C@H]4CCCNC4)n3)c(C)ccc12` [Example 385, (S)—N-(5-((5-Chloro-3-(2-(piperidin-3-ylamino)pyrimidin-4-yl)pyridin-2-yl)oxy)-6-methylnaphthalen-1-yl)propane-1-sulfonamide] was 366 nM; that for `Cc1ccc2c(NCCCF)cccc2c1Oc1ncccc1-c1ccnc(N[C@H]2CCCNC2)n1` [Example 241, (S)-4-(2-((5-((3-Fluoropropyl)amino)-2-methylnaphthalen-1-yl)oxy)pyridin-3-yl)-N-(piperidin-3-yl)pyrimidin-2-amine] was 141 nM; that for `Cc1ccc2c(NC(=O)[C@H]3CC34CC4)c(F)ccc2c1Oc1ncccc1-c1ccnc(N[C@H]2CCCNC2)n1` (single isomer, unassigned) [Example 379] was 279 nM.

`Cc1ncc(S(=O)(=O)Nc2cccc3c(Oc4ncccc4-c4ccnc(N[C@H]5CCCNC5)n4)c(C)ccc23)s1` [Example 210, (S)-2-Methyl-N-(6-methyl-5-((3-(2-(piperidin-3-ylamino)pyrimidin-4-yl)pyridin-2-yl)oxy)naphthalen-1-yl)thiazole-5-sulfonamide]: the 50% inhibitory concentration (IC50) stood at 459 nM. On the same count and under the same terms, for `Cc1ccc2c(NS(=O)(=O)CC(F)(F)F)c(F)ccc2c1Oc1ncccc1-c1ccnc(N[C@H]2CCCNC2)n1` [Example 362, (S)-2,2,2-Trifluoro-N-(2-fluoro-6-methyl-5-((3-(2-(piperidin-3-ylamino)pyrimidin-4-yl)pyridin-2-yl)oxy)naphthalen-1-yl)ethanesulfonamide] the value was 23.4 nM; for `Cc1ccc2c(NC[C@H](O)C(F)(F)F)c(F)ccc2c1Oc1ncccc1-c1ccnc(N[C@H]2CCCNC2)n1` [Example 377, (S)-1,1,1-Trifluoro-3-((2-fluoro-6-methyl-5-((3-(2-((S)-piperidin-3-ylamino)pyrimidin-4-yl)pyridin-2-yl)oxy)naphthalen-1-yl)amino)propan-2-ol], 10.2 nM; for `Cc1ccc2c(NS(=O)(=O)Cc3ccc(F)cc3F)c(F)ccc2c1Oc1ncccc1-c1ccnc(N[C@H]2CCCNC2)n1` [Example 186, (S)-1-(2,4-Difluorophenyl)-N-(2-fluoro-6-methyl-5-((3-(2-(piperidin-3-ylamino)pyrimidin-4-yl)pyridin-2-yl)oxy)naphthalen-1-yl)methanesulfonamide], 4.89 nM.

On to `Cc1ccc2c(N3CC[C@@H](CF)C3=O)cccc2c1Oc1ncccc1-c1ccnc(N[C@H]2CCCNC2)n1` [Example 315, (R)-3-(Fluoromethyl)-1-(6-methyl-5-((3-(2-(((S)-piperidin-3-yl)amino)pyrimidin-4-yl)pyridin-2-yl)oxy)naphthalen-1-yl)pyrrolidin-2-one], for which the IC50 came to 471 nM. Same read-out and setting: for `CCCC(=O)Nc1cccc2c(Oc3ncccc3-c3ccnc(N[C@H]4CCCNC4)n3)c(C)ccc12` [Example 117, (S)—N-(6-Methyl-5-((3-(2-(piperidin-3-ylamino)pyrimidin-4-yl)pyridin-2-yl)oxy)naphthalen-1-yl)butyramide hydrochloride] the value was 145 nM; for `Cc1ccc2c(NS(=O)(=O)CCC(F)(F)F)c(F)ccc2c1Oc1ncccc1-c1ccnc(N[C@@H]2CNC[C@H](C)C2)n1` [Example 311, 3,3,3-Trifluoro-N-(2-fluoro-6-methyl-5-((3-(2-(((3S,5R)-5-methylpiperidin-3-yl)amino)pyrimidin-4-yl)pyridin-2-yl)oxy)naphthalen-1-yl)propane-1-sulfonamide], 6.16 nM; for `Cc1ccc2c(-n3nccc3C)cccc2c1Oc1ccccc1-c1ccnc(N[C@H]2CCCNC2)n1` [Example 246, (S)-4-(2-((2-Methyl-5-(5-methyl-1H-pyrazol-1-yl)naphthalen-1-yl)oxy)phenyl)-N-(piperidin-3-yl)pyrimidin-2-amine], 235 nM.

As for `Cc1nc(CNc2cccc3c(Oc4ncccc4-c4ccnc(N[C@H]5CCCNC5)n4)c(C)ccc23)cs1` [Example 244, (S)-4-(2-((2-Methyl-5-(((2-methylthiazol-4-yl)methyl)amino)naphthalen-1-yl)oxy)pyridin-3-yl)-N-(piperidin-3-yl)pyrimidin-2-amine], the IC50 was determined as 12 nM. As for `Cc1ccc2c(NC(=O)CC3(C)CCCCC3)cccc2c1Oc1ncccc1-c1ccnc(N[C@H]2CCCNC2)n1` [Example 264, (S)—N-(6-Methyl-5-((3-(2-(piperidin-3-ylamino)pyrimidin-4-yl)pyridin-2-yl)oxy)naphthalen-1-yl)-2-(1-methylcyclohexyl)acetamide hydrochloride], the half-maximal inhibitory concentration (IC50) turned out to be 350 nM. Regarding `Cc1ccc2c(NC(=O)[C@@H]3CC34CCCC4)cccc2c1Oc1ncccc1-c1ccnc(N[C@H]2CCCNC2)n1` (single isomer, unassigned) [Example 254], the concentration for half-maximal inhibition (IC50) is 69 nM.

Consider `Cc1cn(C)nc1Nc1cccc2c(Oc3ncccc3-c3ccnc(N[C@H]4CCCNC4)n3)c(C)ccc12` [Example 358, (S)-4-(2-((5-((1,4-Dimethyl-1H-pyrazol-3-yl)amino)-2-methylnaphthalen-1-yl)oxy)pyridin-3-yl)-N-(piperidin-3-yl)pyrimidin-2-amine], for which the 50% inhibitory concentration (IC50) came to 266 nM. Same read-out and setting: the value for `Cc1ccc2c(NC(=O)C3(F)CC3)cccc2c1Oc1ncccc1-c1ccnc(N[C@H]2CCCNC2)n1` [Example 155, (S)-1-Fluoro-N-(6-methyl-5-((3-(2-(piperidin-3-ylamino)pyrimidin-4-yl)pyridin-2-yl)oxy)naphthalen-1-yl)cyclopropane-1-carboxamide] was 380 nM; that for `Cc1ccc2c(NC(=O)[C@@H]3C[C@H]3C(F)F)cccc2c1Oc1ncccc1-c1ccnc(N[C@H]2CCCNC2)n1` [Example 293, (1R,2R)-2-(Difluoromethyl)-N-(6-methyl-5-((3-(2-(((S)-piperidin-3-yl)amino)pyrimidin-4-yl)pyridin-2-yl)oxy)naphthalen-1-yl)cyclopropane-1-carboxamide] was 90.5 nM. Still for that read-out and setting: for `CCCCS(=O)(=O)Nc1cccc2c(Oc3ncccc3-c3ccnc(N[C@H]4CCCNC4)n3)c(C)ccc12` [Example 136, (S)—N-(6-Methyl-5-((3-(2-(piperidin-3-ylamino)pyrimidin-4-yl)pyridin-2-yl)oxy)naphthalen-1-yl) butane-1-sulfonamide] the value was 297 nM.

The same test, now with this note: Table 2; hydrochloride; read-out: XBP1s-luc 293 LUC (IC50).
Regarding `Cc1ccc2c(NS(=O)(=O)CC(C)C(F)(F)F)c(F)ccc2c1Oc1ncccc1-c1ccnc(N[C@H]2CCCNC2)n1` (single isomer, unassigned) [Example 455, hydrochloride], the IC50 was 18 nM.

Still in this test, the particulars now being: Table 2; read-out: XBP1s-luc 293 LUC (IC50).
For `Cc1ccc2c(NC[C@H](C)C#N)cccc2c1Oc1ncccc1-c1ccnc(N[C@H]2CCCNC2)n1` (single isomer, unassigned) [Example 415, hydrochloride], the IC50 was 269 nM. On the same count and under the same terms, for `Cc1nc(CS(=O)(=O)Nc2c(F)ccc3c(Oc4ncccc4-c4ccnc(N[C@H]5CCCNC5)n4)c(C)ccc23)cs1` [Example 411, (S)—N-(2-Fluoro-6-methyl-5-((3-(2-(piperidin-3-ylamino)pyrimidin-4-yl)pyridin-2-yl)oxy)naphthalen-1-yl)-1-(2-methylthiazol-4-yl)methanesulfonamide hydrochloride] the value was 12 nM; for `Cc1ccc2c(NS(=O)(=O)CC(F)(F)C(F)(F)F)c(F)ccc2c1Oc1ncccc1-c1ccnc(N[C@H]2CCCNC2)n1` [Example 439, (S)-2,2,3,3,3-Pentafluoro-N-(2-fluoro-6-methyl-5-((3-(2-(piperidin-3-ylamino)pyrimidin-4-yl)pyridin-2-yl)oxy)naphthalen-1-yl)propane-1-sulfonamide hydrochloride], 155 nM; for `CCC(F)(F)CS(=O)(=O)Nc1c(F)ccc2c(Oc3ncccc3-c3ccnc(N[C@@H]4CNC[C@H](C)C4)n3)c(C)ccc12` [Example 486, 2,2-Difluoro-N-[2-fluoro-6-methyl-5-[[3-[2-[[(3S,5R)-5-methyl-3-piperidyl]amino]pyrimidin-4-yl]-2-pyridyl]oxy]-1-naphthyl]butane-1-sulfonamide hydrochloride], 3 nM.

With `CO[C@@H](C)CS(=O)(=O)Nc1c(F)ccc2c(Oc3ncccc3-c3ccnc(N[C@H]4CCCNC4)n3)c(C)ccc12` (single isomer, unassigned) [Example 393, hydrochloride], the concentration for half-maximal inhibition (IC50) was determined as 76 nM. On the same count and under the same terms, the value for `Cc1ccc2c(NC[C@H](O)C(C)C)cccc2c1Oc1ncccc1-c1ccnc(N[C@H]2CCCNC2)n1` (single isomer, unassigned) [Example 461, hydrochloride] was 42 nM; that for `Cc1ccc2c(NS(=O)(=O)CC(C)C)c(F)ccc2c1Oc1ncccc1-c1ccnc(N[C@@H]2CNC[C@@H](C)C2)n1` [Example 401, N-[2-Fluoro-6-methyl-5-[[3-[2-[[(3S,5S)-5-methyl-3-piperidyl]amino]pyrimidin-4-yl]-2-pyridyl]oxy]-1-naphthyl]-2-methyl-propane-1-sulfonamide hydrochloride] was 67 nM.

In general, IC50 refers to the point on the concentration scale where inhibition reaches its midpoint.
